# Data as given in patent US20260166021A1, “POLYMORPHIC FORMS OF A SOLUBLE EPOXIDE HYDROLASE INHIBITOR AND FORMULATIONS THEREOF” (EicOsis, LLC, priority 2022, published 2026).
# What was measured:
# Format in all cases: physicochemical
# [1] = PEG-stability analyses: Form C/Form D mixture slurried in PEG300 with water
# Procedure: Of particular interest was whether Form D would convert to a hydrate (e.g., Form C) in the presence of water. To investigate the critical water concentration for phase interconversion between Pattern C and D, a series experiments were designed (as summarized in TABLE 16). A 1:1 mixture of Forms C and D was prepared and slurried in PEG 300 with different levels of water concentrations. Phase transformations were monitored with XRD, and are summarized in FIG. 85, which (from top to bottom) provides XRD of Form C, Form D, the mixture following incubation in PEG300 containing 75% water, the mixture following incubation in PEG300 containing 50% water, the mixture following incubation in PEG300 containing 25% water, the mixture following incubation in PEG300 containing 10% water, and the mixture following incubation in PEG300 containing 5% water. […] Form D is the stable form in PEG300 with less than 50% water.
# [2] = Supersaturation monitoring in PEG 300; details: PEG 300 (0.5 mL)
# [3] = Solubility of Form C in binary solvent systems (TABLE 22)
# [4] = Equilibrium-solubility screening in solvents and excipients
# Procedure: For these analyses, Form D or Form C was mixed with 0.5 or 1.0 mL of solvents and equilibrated for approximately 24 hours. The mixture was filtered through 0.45 μm centrifuge filters.
# As expected, the compound was not easily ionized at physiologically relevant pH. […] In addition, these excipients included surfactants, co-solvents, and lipids which are amenable for use in self-emulsifying drug delivery systems (SEDDS). The XRD pattern of the starting material was maintained for each sample after equilibrium.
# [5] = Thermal stress studies at 60° C. (XRD, HPLC); details: incubated at 60° C., in less than 1 day
# Procedure: Briefly, 20 mg of solid Form A, B, C, D, E, F, G, and I were weighed into 7 mL glass vials. The vials were covered with tissue and stored in ovens set to 60° C. and ambient pressure. Following 1 and 7 days incubation, solid was collected for XRD analysis.
# As shown in these figures, Forms B and C converted to Forms D and A, respectively, while the other forms remained unchanged.
# The starting materials, intermediates (1 day of thermal stress), and products (7 days of thermal stress) were analyzed by H PLC. Representative chromatograms from the Form D thermal stress analyses are shown in FIGS. 81-83 (starting material, 1 day, and 7 day samples, respectively).
# [6] = Competitive slurry experiments (solvent-mediated polymorph transformation, XRD); details: room temperature, water, MTBE or n-heptane, 1 and 7 days, listed as Pattern C
# Procedure: Polymorph stability and interconversions were analyzed with competitive slurry experiments. The competitive slurry (solvent-mediated transformation) experiments were performed on Forms A, B, D, E, F, G, and I generated through scaled-up crystallization (summarized in TABLE 11). […] The suspensions were aliquoted at one day and seven days and filtered to isolate the solids. Remaining solid was analyzed by XRD without drying.
# In FIG. 66, the second spectrum from the top corresponds to Form E. These XRD data confirmed that Patterns C, K, and D were afforded in these solvents.
# In order to further confirm the rank of stability order of the selected forms and extend the temperature range of stability relationship up to 70° C. covering potential API process conditions, binary form slurries were conducted with starting mixtures of (1) Forms A and D, and (2) Forms D and E. The resultant polymorphs were characterized with XRD after 1 and 7 days, the results of which analyses are shown in FIGURE S 67-68 and summarized in TABLE 13. Pattern D stood out from both binary mixture slurries of A & D and of D & E after seven-day stirring at the elevated temperature.
# Additional single form slurry experiments were conducted on Forms A, D, and E in either water or heptane at room temperature. […] In agreement with prior competitive slurry experiments, Form D was stable at room temperature in n-heptane. Pattern E was obtained from slurries starting with Forms A and E in n-heptane. As expected, Form C was formed from the Pattern E slurry in water.
# [7] = Thermal gravimetric analysis (TGA); details: TGA thermogram of lot
# Procedure: Thermal gravimetric analyses were performed on each sample “as is.” Unless otherwise noted, samples were weighed in an alumina crucible and analyzed from 30-350° C. at 10° C./min.
# Form C weight loss at 39° C.-50° C. likely reflected methanol loss.
# [8] = Differential scanning calorimetry (DSC): heat of fusion, thermal events; details: DSC thermogram of lot
# Procedure: Differential scanning calorimetry analyses were performed on each sample “as is.” Unless otherwise specified, samples were weighed in an aluminum pan, covered with a pierced lid, and then crimped and analyzed from 30-300° C. ramped at 10° C./min.
# The DSC data were used to determine the heat of fusion for Forms A, B, D, and F, based on their heats of fusion as measured during conversion from Form C.
# [9] = Moisture-sorption analysis (DVS); details: dynamic vapor sorption
# Procedure: Gravimetric moisture sorption experiment was performed on all materials by first holding the sample at 40% RH and 25° C. until an equilibrium weight was reached or for a maximum of 4 h. The sample was then subjected to an isothermal (25° C.) adsorption scan from 40% to 90% R H in steps of 10% RH. The sample was allowed to equilibrate to an asymptotic weight at each point for a maximum of 4 h. Following adsorption, a desorption scan from 90% to 0% RH (at 25° C.) was run in steps of −10% R H allowing a maximum of 4 h for equilibration to an asymptotic weight. An adsorption scan was then performed from 0% RH to 40% RH in steps of +10% R H. The sample was then dried for more than 2 h at 60° C. 0% R H and the resulting solid analyzed by XRD.
# FIGS. 88-92 provide physical analyses of lot 1. […] FIG. 90 provides a modulated DSC thermogram of lot 1, and identifies a glass transition temperature midpoint of around 48.5° C. […] FIG. 92 provides dynamic vapor sorption plots of lot 1, indicating 2.49 weight percent water vapor adsorption at 90% relative humidity, 1.25 weight percent water vapor adsorption at 60% relative humidity, and close to complete water vapor desorption at 0% relative humidity.
# FIG. 95 provides polarized-light microscope images of lot 2 at 200× magnification, with 50 and 100 μm scales shown. […] FIG. 96 provides dynamic vapor sorption plots of lot 2, indicating 3.99 weight percent water vapor adsorption at 60% relative humidity, 4.12 weight percent water vapor adsorption at 90% relative humidity, and close to complete water vapor desorption at 0% relative humidity.
# [10] = Particle size analysis (Malvern particle sizer, dry method; optical microscopy); details: for Size range / birefringence / crystal shape: polarized-light microscopic images
# Procedure: Particle size was first analyzed with optical microscopy.
# Particle size was also analyzed with a dry-method using a Malvern 300 particle sizer equipped with a standard energy venturi and utilizing 2.5 bar, 3.0 bar, and 3.5 bar air pressure. […] One possible explanation is that the insufficient energy was provided to break up particle agglomerations.
# Based on these findings, particle size analysis was repeated at 2.5, 3.0, and 3.5 bar using a higher energy venturi to ensure the break-up of the potential agglomerates. The detailed particle sizing data using high-energy venturi are summarized in TABLE 26 and in FIGS. 114-119, with FIGS. 114-116 corresponding to 2.5, 3.0, and 3.5 bar analyses of unmilled Form D and FIGS. 117-119 corresponding to 2.5, 3.0, and 3.5 bar analyses of micronized Form D, respectively. While the data remained bimodal, indicating incomplete break-up of particle agglomerates, the D90 of micronized material measured below 6 μm, in closer agreement with the optical analyses.
# [11] = Bulk and tapped density (tap density tester); details: listed as micronixed form
# Text: Before milling, Form D was screened through a 30-micron mesh sieve. Then, Form D micronized using a 2-inch jet mill 70 psig feed pressure, 40 psig grinding pressure, and a 4.3 g/min powder feed rate. The micronization process provided a 69% yield and 95.6% crystallinity relative to the unmilled material.
structure (smiles),measurement,setting,value
CC[C@H](C)C(=O)N1CCC(NC(=O)Nc2ccc(OC(F)(F)F)c(F)c2)CC1 [C (50%) + D (50%)],XRD Pattern at Equilibrium,[1]; H2O:PEG 300 = 50%:50%,C (major) + D (minor)
"CC[C@H](C)C(=O)N1CCC(NC(=O)Nc2ccc(OC(F)(F)F)c(F)c2)CC1 [Form C, (S)-1-(3-fluoro-4-(trifluoromethoxy)phenyl)-3-(1-(2-methylbutanoyl)piperidin-4-yl)urea]",Step → Observation,"[2]; 100 mg/mL, 1. RT stirring for 1 hr, listed as Pattern C",1. RT stirring for 1 hr →suspension
same,Step → Observation,"[2]; 100 mg/mL, 2. 40 C. heating for 0.5 hr, listed as Pattern C",2. 40 °C heating for 0.5 hr →clear solution
same,Step → Observation,"[2]; 100 mg/mL, 3. RT storage for ~8 days, listed as Pattern C",3. RT storage for ~8 days →clear solution
same,Step → Observation,"[2]; 100 mg/mL, 4. RT storage for ~9 days, listed as Pattern C",4. RT storage for ~9 days →precipitation
same,Step → Observation,"[2]; 200 mg/mL, 1. RT stirring for 1 hr",1. RT stirring for 1 hr →suspension
same,Step → Observation,"[2]; 200 mg/mL, 2. 40 C. heating for 48 hr, listed as Pattern C",2. 40 °C heating for 48 hr →suspension
same,Step → Observation,"[2]; 200 mg/mL, 3. 55 C. heating for <16 hr",3. 55 C. heating for <16 hr →clear solution
same,Step → Observation,"[2]; 200 mg/mL, 4. RT storage for <3.5 days",4. RT storage for <3.5 days →precipitation
same,Step → Observation,"[2]; 200 mg/mL, 5. 55 C. reheating for overnight",5. 55 C. reheating for overnight →clear solution
same,Step → Observation,"[2]; 200 mg/mL, 6. RT storage for overnight",6. RT storage for overnight →precipitation
same,solubility,"[3]; IPA/n-heptane, ratio of n-heptane to primary 21.3, organic solvent or mixture",5000 µg/mL
same,solubility,"[3]; ethanol/n-heptane, organic solvent or mixture, EtOH, ratio of n-heptane to primary 7.7 (1st test point)",38000 µg/mL
same,solubility,"[3]; ethanol/n-heptane, organic solvent or mixture, EtOH, ratio of n-heptane to primary 13.2 (2nd test point)",10000 µg/mL
same,solubility,"[3]; ethyl acetate/n-heptane, organic solvent or mixture, EtoAC, ratio of n-heptane to primary 1.4 (1st test point)",7000 µg/mL
same,solubility,"[3]; ethyl acetate/n-heptane, organic solvent or mixture, EtoAC, ratio of n-heptane to primary 2.0 (2nd test point)",4000 µg/mL
same,solubility,"[3]; ethyl acetate/n-heptane, organic solvent or mixture, EtoAC, ratio of n-heptane to primary 2.2 (3rd test point)",3000 µg/mL
same,solubility,"[3]; organic solvent or mixture, IPA, ratio of n-heptane to primary 13.3 (1st test point)",30000 µg/mL
same,solubility,"[3]; organic solvent or mixture, IPA, ratio of n-heptane to primary 13.9 (2nd test point)",10000 µg/mL
same,solubility,"[3]; organic solvent or mixture, MEK, ratio of n-heptane to primary 2.0 (1st test point)",11000 µg/mL
same,solubility,"[3]; organic solvent or mixture, MEK, ratio of n-heptane to primary 3.0 (2nd test point)",5000 µg/mL
same,solubility,"[3]; organic solvent or mixture, MEK, ratio of n-heptane to primary 3.4 (3rd test point)",4000 µg/mL
same,XRD Pattern At Equilibrium,"[4]; PEG 300, 50%",Form C
same,solubility thermodynamic at 24 h,"[4]; PEG 300, 50%, aqueous with cosolvent or surfactant or cyclodextrin, thermodynamic from solid",800 µg/mL
same,Equilibrium Solubility,"[4]; PEG 300, 100%",16700 µg/mL
same,XRD Pattern At Equilibrium,"[4]; PEG 300, 100%",Form D
same,Equilibrium Solubility,"[4]; PEG 400, 50%",400 µg/mL
same,XRD Pattern At Equilibrium,"[4]; PEG 400, 50%",Form C
same,Equilibrium Solubility,"[4]; PEG 400, 100%",17900 µg/mL
same,XRD Pattern At Equilibrium,"[4]; PEG 400, 100%",Form D
same,conversion to Form A,[5],100%
same,stable form in PEG300 with 50% or higher water content,"[1]; 1:1 mixture of Forms C and D slurried in PEG300, XRD",more stable
same,polymorph stability in competitive slurry,[6],unstable hydrate
CC[C@H](C)C(=O)N1CCC(NC(=O)Nc2ccc(OC(F)(F)F)c(F)c2)CC1 [lot 1],wt change at 233° C.,[7],99% wt change
same,wt change below 100° C.,[7],0% wt change
same,Endotherm (likely dehydration of bound water),[8],63 °C
same,Exotherm (crystallization of Form B),[8],115 °C (crystallization of
same,water vapor adsorption at 60% RH,[9],60% RH 1.25 wt %
same,water vapor adsorption at 90% RH,[9],90% RH 2.49 wt %
same,Size range,[10],Size range; 5-80 μm;
same,birefringence,[10],Birefringent
same,crystal shape,[10],Irregular plate;
CC[C@H](C)C(=O)N1CCC(NC(=O)Nc2ccc(OC(F)(F)F)c(F)c2)CC1 [lot 2],wt change at 233° C.,[7],96% wt change
same,wt change below 100° C.,[7],2.9% wt change
same,Endotherm (likely dehydration of bound water),[8],79 °C (likely dehydration of
same,Endotherm (melting of Form A),[8],"111 °C (melting of Form A),"
same,Exotherm (crystallization of Form B),[8],117 °C (crystallization of
same,water vapor adsorption at 60% RH,[9],60% RH 3.99 wt %
same,water vapor adsorption at 90% RH,[9],90% RH 4.12 wt %
same,Size range,[10],Size range; 5-200 μm;
same,birefringence,[10],Birefringent
same,crystal shape,[10],Irregular plate;
"CC[C@H](C)C(=O)N1CCC(NC(=O)Nc2ccc(OC(F)(F)F)c(F)c2)CC1 [micronized Form D, (S)-1-(3-fluoro-4-(trifluoromethoxy)phenyl)-3-(1-(2-methylbutanoyl)piperidin-4-yl)urea]",bulk density,[11],0.20 g/mL
same,tapped density,[11],0.22 g/mL
same,D90 particle size,"[10]; higher energy venturi, 2.5, 3.0 and 3.5 bar",below 6 μm
